US20260297042A1, “BIARYLAMIDE DERIVATIVES AND THEIR USE AS PKMYT1 INHIBITORS” (CANCER RESEARCH TECHNOLOGY LIMITED, priority 2023, published 2026)

Tests used:
[1] = test system: OVCAR 3 cells; experiment: Cancer cell line proliferation assay, ATP-based cell viability (Cell Titre Glow), OVCAR 3 (CCNE1-amplified); conditions: KYSE30 (normal CCNE1) GI50 vs. OVCAR 3 (CCNE1-amplified) GI50
Method in brief: (§1)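 Sensitivity to PKMYT1 inhibitors was measured by ATP-based luminescence (CellTiter-Glo) as the proliferation endpoint. GI50, the concentration giving 50% growth inhibition, was estimated from curve fits.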

[2] = molecular target: T1, Human PKMYT1 (Homo sapiens, UniProt Q99640); experiment: PKMYT1 biochemical ADP-Glo enzymatic assay; conditions: ADP-Glo
T1 construct: Human PKMYT1 75-362 was cloned as a TEV cleavable 6xHis fusion; 6xHis (TEV cleavable) (cleaved yes); made in house; host or cells: bacterial cells
T1 sequence (Q99640 75-362): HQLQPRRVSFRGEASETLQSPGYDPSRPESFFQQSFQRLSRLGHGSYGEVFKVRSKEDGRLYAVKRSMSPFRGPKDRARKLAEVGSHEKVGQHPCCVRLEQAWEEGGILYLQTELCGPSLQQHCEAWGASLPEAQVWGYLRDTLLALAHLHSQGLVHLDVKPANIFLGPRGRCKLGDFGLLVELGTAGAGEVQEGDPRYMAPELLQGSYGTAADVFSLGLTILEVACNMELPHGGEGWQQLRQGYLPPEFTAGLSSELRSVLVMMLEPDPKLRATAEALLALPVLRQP
Method in brief: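 Compounds were titrated over 10 points (3-fold steps), then 15 nM purified PKMYT1 kinase domain (aa 75-362) and 500 µM ATP were added in pH 7.5 HEPES buffer. After 60 min at 26 °C, remaining ATP was depleted and ADP converted to luminescence for IC50 fitting.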

[3] = test system: KYSE-30 cells; experiment: Cancer cell line proliferation assay, ATP-based cell viability (Cell Titre Glow), KYSE-30 (normal CCNE1); conditions: Homo sapiens, KYSE-30 cells (normal CCNE1), concentration that achieves 50% cell growth proliferation inhibition, read-out: KYSE30 Gl50
Method in brief: as §1

[4] = molecular target: T2, Cellular PKMYT1 Biomarker CDK1 pT14 (Homo sapiens, UniProt Q99640); experiment: Inhibition of cellular PKMYT1 biomarker CDK1 pT14 in OVCAR 3 cells (immunoblot); type: cell-based; conditions: 20 hours incubation
T2 construct: read-out CDK1 phospho-T14 immunoblot
T2 sequence (Q99640 1-499): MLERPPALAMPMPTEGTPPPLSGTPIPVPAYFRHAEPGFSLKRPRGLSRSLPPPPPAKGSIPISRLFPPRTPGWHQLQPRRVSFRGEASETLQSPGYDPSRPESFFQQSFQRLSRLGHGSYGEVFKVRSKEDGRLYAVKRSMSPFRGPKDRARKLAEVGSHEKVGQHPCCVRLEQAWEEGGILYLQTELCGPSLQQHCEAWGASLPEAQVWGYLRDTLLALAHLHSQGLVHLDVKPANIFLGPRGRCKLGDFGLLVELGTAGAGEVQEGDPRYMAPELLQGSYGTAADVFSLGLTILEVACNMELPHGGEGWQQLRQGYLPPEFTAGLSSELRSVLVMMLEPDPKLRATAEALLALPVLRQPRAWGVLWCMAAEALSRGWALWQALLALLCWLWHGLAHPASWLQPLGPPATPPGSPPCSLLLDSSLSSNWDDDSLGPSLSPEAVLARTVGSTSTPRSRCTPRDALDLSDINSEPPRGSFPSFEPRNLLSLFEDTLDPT
Method: To determine compound PKMYT1 IC50 in a cellular assay, OVCAR 3 cells were incubated at 37° C. in 5% CO2 atmosphere. The cells were maintained in RPMI medium supplemented with 20% foetal bovine serum, 1X non essential amino acids, 1 mM sodium pyruvate, Glutamax and insulin. Cells were seeded into 12-well plates at low density (50,000-200,000 cells per well), grown to confluence (~350-400,000 cells per well) and then treated with a range of concentrations of PKMYT1 inhibitors. The cells were incubated 20 hours and then harvested into 1X Laemmli Sample Buffer (BIORAD) without 2-mercaptoethanol, heated to 95° C. for 5 min, centrifuged and sonicated using a microprobe for 15 sec, 21W to shear the DNA.
The samples were analysed by immunoblot on a Jess Automated Western Blot System (BioTechne). The samples were separated using the 12-230 kDa Separation Module (BioTechne,) and blotted using an anti-CDK1 phospho T14 antibody (Abcam, #ab58509) and an anti-vinculin antibody (Abcam, #126002). Specific binding was detected by fluorescence using the Anti-Rabbit Detection Module (BioTechne, #DM-001), quantified using Compass for Simple Western software, and IC50 values were calculated by regression analysis in GraphPad Prism.

[5] = molecular target: T3, WEE1 (Homo sapiens, UniProt P30291); experiment: Selectivity versus WEE1 assay (ADP-Glo enzymatic assay); type: biochemical; conditions: for IC50: ADP-Glo; for PKMYT1 vs. WEE1 selectivity: fold difference in selectivity for PKMYT1 over WEE1
T3 construct: purchased Thermo Fisher PR7373A
Method in brief: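 Compounds were pre-dispensed, enzyme (15 nM final) was added in pH 7.5 HEPES buffer, and ATP ([…]) then started a 60 min incubation at 26° C. Afterwards ADP-Glo reagents were added in turn and luminescence was measured to derive IC50 values.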

[6] = 15 nM PKMYT1 kinase domain, 500 µM ATP, 60 minutes at 26° C., banded
[7] = 15 nM WEE1, 60 minutes at 26° C., banded
[8] = banded, ">N" = at least in this band but could be higher
[9] = PKMYT1 kinase domain 15 nM, banded values

T3 sequence (P30291 whole entry): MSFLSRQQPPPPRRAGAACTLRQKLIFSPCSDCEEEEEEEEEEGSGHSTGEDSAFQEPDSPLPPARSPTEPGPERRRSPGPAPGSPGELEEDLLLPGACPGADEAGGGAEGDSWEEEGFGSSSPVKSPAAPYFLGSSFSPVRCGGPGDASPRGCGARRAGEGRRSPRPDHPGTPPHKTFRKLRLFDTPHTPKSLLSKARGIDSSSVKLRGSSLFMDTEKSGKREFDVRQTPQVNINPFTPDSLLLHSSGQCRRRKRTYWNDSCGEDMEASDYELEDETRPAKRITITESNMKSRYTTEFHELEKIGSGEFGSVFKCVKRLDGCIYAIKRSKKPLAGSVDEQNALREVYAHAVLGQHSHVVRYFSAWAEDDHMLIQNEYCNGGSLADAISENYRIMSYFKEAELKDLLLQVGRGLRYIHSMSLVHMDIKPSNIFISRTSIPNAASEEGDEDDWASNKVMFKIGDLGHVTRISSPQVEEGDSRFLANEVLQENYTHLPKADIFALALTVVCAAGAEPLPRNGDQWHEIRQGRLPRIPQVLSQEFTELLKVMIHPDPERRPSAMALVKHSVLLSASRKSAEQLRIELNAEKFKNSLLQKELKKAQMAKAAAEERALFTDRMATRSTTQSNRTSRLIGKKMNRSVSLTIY

Cc1cn(S(=O)(=O)C(C)C)nc1Nc1ncc(C(=O)Nc2c(C)ccc(O)c2C)s1 [BAA-268, N-(3-hydroxy-2,6-dimethylphenyl)-2-((1-(isopropylsulfonyl)-4-methyl-1H-pyrazol-3-yl)amino) thiazole-5-carboxamide]
Selectivity ratio KYSE30 Gl50 vs. OVCAR3 Gl50 [1]: Y (>20 fold) | IC50 [2, 6]: < 0.05 µM | GI50 [3]: > 5 µM | IC50 [4]: < 0.1 µM | IC50 [5, 7]: > 11 µM | PKMYT1 vs. WEE1 selectivity [5, 8]: Y (1000-5000 fold)

Cc1ccc(O)c(C)c1NC(=O)c1cnc(Nc2cccc(CC(=O)N(C)C3CC3)n2)s1 [BAA-428, 2-((6-(2-(Cyclopropyl(methyl)amino)-2-oxoethyl)pyridin-2-yl)amino)-N-(3-hydroxy-2,6-dimethylphenyl)thiazole-5-carboxamide]
Selectivity ratio KYSE30 Gl50 vs. OVCAR3 Gl50 [1]: Y (>20 fold) | IC50 [2, 9]: < 0.05 µM | GI50 [3]: > 5 µM | IC50 [4]: < 0.1 µM

Cc1ccc(O)c(C)c1NC(=O)c1cnc(Nc2ccn(C3CCN(C)C3=O)n2)s1 (stereo not shown) [BAA-601, N-(3-hydroxy-2,6-dimethylphenyl)-2-((1-(1-methyl-2-oxopyrrolidin-3-yl)-1H-pyrazol-3-yl)amino)thiazole-5-carboxamide]
IC50 [2, 9]: < 0.05 µM | IC50 [4]: 0.1 to 1 µM | IC50 ([5]; WEE1 15 nM, banded values): > 11 µM | PKMYT1 vs. WEE1 selectivity ([5]; banded): X (100-<1000 fold)

COCC(C(=O)N1CCCC1)n1cc(C)c(Nc2ncc(C(=O)Nc3c(C)ccc(O)c3C)s2)n1 (stereo not shown) [BAA-577, N-(3-Hydroxy-2.6-dimethylphenyl)-2-((1-(3-methoxy-1-oxo-1-(pyrrolidin-1-yl)propan-2-yl)-4-methyl-1H-pyrazol-3-yl)amino)thiazole-5-carboxamide]
IC50 [2, 9]: < 0.05 µM | IC50 [4]: < 0.1 µM | IC50 ([5]; WEE1 15 nM, banded values): > 11 µM | PKMYT1 vs. WEE1 selectivity ([5]; banded): X (100-<1000 fold)

Cc1ccc(O)c(C)c1NC(=O)c1cnc(Nc2ncc(F)cc2F)s1 [BAA-413, 2-((3,5-difluoropyridin-2-yl)amino)-N-(3-hydroxy-2,6-dimethylphenyl)thiazole-5-carboxamide]
IC50 [2, 9]: < 0.05 µM | IC50 [4]: 0.1 to 1 µM | IC50 ([5]; WEE1 15 nM, banded values): > 11 µM | PKMYT1 vs. WEE1 selectivity ([5]; banded): Z (>5000 fold)

Cc1cn(CC#N)nc1Nc1ncc(C(=O)Nc2c(C)ccc(O)c2C)s1 [BAA-467, 2-((1-(cyanomethyl)-4-methyl-1H-pyrazol-3-yl)amino)-N-(3-hydroxy-2,6-dimethylphenyl)thiazole-5-carboxamide]
IC50 [2, 9]: < 0.05 µM | IC50 [4]: < 0.1 µM | IC50 ([5]; WEE1 15 nM, banded values): 0.05 to 1 µM | PKMYT1 vs. WEE1 selectivity ([5]; banded): W (10-<100 fold)

Cn1cc(Br)c(Nc2ncc(C(=O)Nc3c(Cl)ccc(O)c3F)s2)n1 [BAA-471, 2-((4-Bromo-1-methyl-1H-pyrazol-3-yl)amino)-N-(6-chloro-2-fluoro-3-hydroxyphenyl)thiazole-5-carboxamide]
IC50 [2, 9]: 0.05 to 1 µM | IC50 [4]: 0.1 to 1 µM | IC50 ([5]; WEE1 15 nM, banded values): > 11 µM | PKMYT1 vs. WEE1 selectivity ([5]; banded): X (100-<1000 fold)

Cc1ccc(O)c(C)c1NC(=O)c1cnc(Nc2n[nH]cc2F)s1 [BAA-593, 2-((4-Fluoro-1H-pyrazol-3-yl)amino)-N-(3-hydroxy-2,6-dimethylphenyl)thiazole-5-carboxamide]
IC50 [2, 9]: < 0.05 µM | IC50 [4]: 0.1 to 1 µM | IC50 ([5]; WEE1 15 nM, banded values): 1 to 11 µM | PKMYT1 vs. WEE1 selectivity ([5]; banded): X (100-<1000 fold)

Cc1cn(CC(=O)N2CCCC2)nc1Nc1ncc(C(=O)Nc2c(C)cc(Cl)c(O)c2C)s1 [BAA-553, N-(4-chloro-3-hydroxy-2,6-dimethylphenyl)-2-((4-methyl-1-(2-oxo-2-(pyrrolidin-1-yl)ethyl)-1H-pyrazol-3-yl)amino) thiazole-5-carboxamide]
IC50 [2, 9]: 0.05 to 1 µM | IC50 [4]: 0.1 to 1 µM | IC50 ([5]; WEE1 15 nM, banded values): > 11 µM | PKMYT1 vs. WEE1 selectivity ([5]; banded): X (100-<1000 fold)

Cc1ccc(O)c(C)c1NC(=O)c1cnc(Nc2ncccc2F)s1 [BAA-411, 2-((3-fluoropyridin-2-yl)amino)-N-(3-hydroxy-2,6-dimethylphenyl)thiazole-5-carboxamide]
IC50 [2, 9]: < 0.05 µM | IC50 [4]: 0.1 to 1 µM | IC50 ([5]; WEE1 15 nM, banded values): > 11 µM | PKMYT1 vs. WEE1 selectivity ([5]; banded): Y (1000-5000 fold)

COCCN(C)C(=O)Cn1cc(C)c(Nc2ncc(C(=O)Nc3c(C)ccc(O)c3C)s2)n1 [BAA-549, N-(3-Hydroxy-2,6-dimethylphenyl)-2-((1-(2-((2-methoxyethyl)(methyl)amino)-2-oxoethyl)-4-methyl-1H-pyrazol-3-yl)amino)thiazole-5-carboxamide]
IC50 [2, 9]: < 0.05 µM | IC50 [4]: < 0.1 µM | IC50 ([5]; WEE1 15 nM, banded values): > 11 µM | PKMYT1 vs. WEE1 selectivity ([5]; banded): X (100-<1000 fold)

Cc1ccc(O)c(C)c1NC(=O)c1cnc(Nc2nn(C)c3ccc(C(F)(F)F)cc23)s1 [BAA-454, N-(3-hydroxy-2,6-dimethylphenyl)-2-((1-methyl-5-(trifluoromethyl)-1H-indazol-3-yl)amino)thiazole-5-carboxamide]
IC50 [2, 9]: 0.05 to 1 µM | IC50 [4]: < 0.1 µM | IC50 ([5]; WEE1 15 nM, banded values): > 11 µM | PKMYT1 vs. WEE1 selectivity ([5]; banded): X (100-<1000 fold)

Cc1cc(Nc2ncc(C(=O)Nc3c(C)ccc(O)c3C)s2)ncn1 [BAA-580, N-(3-hydroxy-2,6-dimethylphenyl)-2-((6-methylpyrimidin-4-yl)amino)thiazole-5-carboxamide]
IC50 [2, 9]: < 0.05 µM | IC50 [4]: 0.1 to 1 µM | IC50 ([5]; WEE1 15 nM, banded values): 1 to 11 µM | PKMYT1 vs. WEE1 selectivity ([5]; banded): X (100-<1000 fold)

Cc1cn(CC(=O)N(C)CCC#N)nc1Nc1ncc(C(=O)Nc2c(C)ccc(O)c2C)s1 [BAA-523, 2-((1-(2-((2-cyanoethyl)(methyl)amino)-2-oxo-ethyl)-4-methyl-1H-pyrazol-3-yl)amino)-N-(3-hydroxy-2,6-dimethylphenyl)thiazole-5-carboxamide]
IC50 [2, 9]: < 0.05 µM | IC50 [4]: 0.1 to 1 µM | IC50 ([5]; WEE1 15 nM, banded values): 1 to 11 µM | PKMYT1 vs. WEE1 selectivity ([5]; banded): X (100-<1000 fold)

Cc1ccc(O)c(C)c1NC(=O)c1cnc(Nc2ncccc2C2CC2)s1 [BAA-412, 2-((3-cyclopropylpyridin-2-yl)amino)-N-(3-hydroxy-2,6-dimethylphenyl)thiazole-5-carboxamide]
IC50 [2, 9]: < 0.05 µM | IC50 [4]: 0.1 to 1 µM | IC50 ([5]; WEE1 15 nM, banded values): > 11 µM | PKMYT1 vs. WEE1 selectivity ([5]; banded): Z (>5000 fold)

Cc1cc(Nc2ncc(C(=O)Nc3c(C)ccc(O)c3C)s2)n(C2CCCC2)n1 [BAA-231, 2-((1-cyclopentyl-3-methyl-1H-pyrazol-5-yl)amino)-N-(3-hydroxy-2,6-dimethylphenyl)thiazole-5-carboxamide]
IC50 [2, 6]: 0.05 to 1 µM | IC50 [4]: 0.1 to 1 µM | IC50 [5, 7]: > 11 µM | PKMYT1 vs. WEE1 selectivity [5, 8]: Y (1000-5000 fold)

Cc1ccc(O)c(C)c1NC(=O)c1cnc(Nc2nccc3cccnc23)s1 [BAA-604, 2-((1,7-naphthyridin-8-yl)amino)-N-(3-hydroxy-2,6-dimethylphenyl)thiazole-5-carboxamide]
IC50 [2, 9]: < 0.05 µM | IC50 [4]: 0.1 to 1 µM | IC50 ([5]; WEE1 15 nM, banded values): > 11 µM | PKMYT1 vs. WEE1 selectivity ([5]; banded): Y (1000-5000 fold)
